{"source": "patent US20230062537A1", "about": "“Therapy of oxygen pulses for treating neurodegenerative disorders such as Parkinson Disease (PD), Alzheimer’s Disease (AD), Amiotrophic Lateral Sclerosis (ALS) or Motor Neuron Disease (MND) and other dementias, and Lymphedema, Arthritis and Depression” (priority 2021, published 2023)", "key": {"Arthritis": {"tested_on": "Arthritis", "conditions": "method No 4", "method": "(§1) The pulse oxygen therapy as described therein for treating neurodegenerative diseases (PD, AD, ALS, MS, Arthritis, Lymphedema and Depression) to patients with mild, moderate, severe, or critical conditions may be applied as follow: • 1. […] Patients must have comfortable accommodation (temperature, illumination and sanitary conditions). • 2. As prophylactic treatment (elder patients and/or with chronic diseases) treat patients with 6 l/min oxygen flow for 60 min once a day during 5 days. • 3. As treatment for patients with mild disease (initial symptoms) treat patients with 6 l/min oxygen flow for 60 min once a day during 10 days. • 4. As treatment for patients with moderate disease treat patients with 6 l/min oxygen flow for 60 min twice a day during 10 days. • 5. As treatment for patients with severe disease treat patients with 6 l/min oxygen flow for 60 min four time a day during 10 days. • 6. As treatment for patients with critical disease treat patients with 6 l/min oxygen flow for 60 min every 3 hours during 10 days."}, "Depression": {"tested_on": "Depression", "conditions": "method No 4", "method": "as §1"}, "Lymphedema": {"tested_on": "Lymphedema", "conditions": "method No 4", "method": "as §1"}, "Parkinson Disease": {"tested_on": "Parkinson Disease", "method": "as §1"}, "[1]": {"conditions": "for oxygen transported to the tissues: cardiac flow of 1 l/min", "excerpt": "At sea level, (non humidified) room air contains 21% O2 which translates into an oxygen partial pressure of 160 mm Hg [0.21*760 mm Hg)]. However, the body mean tissue oxygen levels are much lower than this level. Alveolar air contains 14% oxygen (106 mm Hg), arterial oxygen concentration is 12% (91 mm Hg), venous oxygen levels are 5.3% (40 mm Hg), and mean tissue intracellular oxygen concentration is only 3% (22 mm Hg (Guyton, and Hall, 1996). Furthermore, direct microelectrode measurements of tissue O2 reveal that parts of the brain normally experience O2 levels considerably lower than total body mean tissue oxygen levels, reflecting the high oxygen utilization in brain. These studies also highlight considerable regional variation in average brain oxygen levels (Table 1) that have been attributed to local differences in capillary density. Mean brain tissue oxygen concentration in adult rates is 1.5% (Silver and Erecinska, 1988), and mean fetal sheep brain oxygen tension has also been estimated at 1.6% (Koos and Power, 1987).\nIf we inspire air at normal pressure of 760 mm Hg (O221%) alveolar oxygen content will be 14% (106 mm Hg) and arterial oxygen content 12% (91 mm Hg). However arterial oxygen content includes oxygen content in the Hemoglobin plus oxygen absorbed in the plasma. (Mathews and Van Holde, 2002)\nOxygen content in the Hemoglobin (ml/dL)=Hb (g/dL)*% Sat.*[…]\nAt 100 mmHg oxygen pressure and 100% Hemoglobin saturation Oxygen content in the arterial blood is 20.7 ml/dL\nIf we consider a normal cardiac flow of 1 l/min, oxygen transported to the tissues would be […] or 0.924 mol-g of oxygen (5.57*10^23 molecules of oxygen/min.).\nIf we inspire oxygen enriched air of 31% O2, arterial pressure of oxygen would be (31/21)*100=147 mm Hg\nAlso oxygen content at the brain tissue will be:\nOxygen content in the arterial blood=Oxygen in Hemoglobin+Oxygen absorbed in the plasma\nIf we inspire oxygen of 95% O2, arterial pressure of oxygen would be (95/21)*100=452 mm Hg"}, "[2]": {"tested_on": "PD, AD, ALS, Arthritis, Lymphedema, and Depression patients", "experimental": "In our therapy the oxygen pulses are administered in consonance with the advance of the neurodegenerative diseases (PD, AD, ALS, MS, Arthritis, Lymphedema and Depression) as described as follow: • a. At the beginning of the neurodegenerative disease with the apparition of the first symptoms using procedure 1 or 2 twice a day for 5 days. • b. When the neurodegenerative disease has been detected, with a medical diagnostic, using procedure 1 or 2 four times a day for 10 days. • c. With an advanced neurodegenerative disease using procedure 1 or 2 eight times a day for 10 days"}}, "note": "Where two headings read alike, the source gives them in different places."}
{"smiles": "O=O", "note": "[oxygen]", "values": [{"measurement": "deformation at follow-up", "setting": "Arthritis; after 12 months", "value": "no more deformation has been observed"}, {"measurement": "outcome after 10 days", "setting": "Arthritis; after 10 days", "value": "a notable recuperation takes place"}, {"measurement": "time to begin of recovery", "setting": "Arthritis; person, severe deformation in hands", "value": 5, "unit": "days"}, {"measurement": "Depression at follow-up", "setting": "Depression; after 11 months", "value": "no more Depression has been detected"}, {"measurement": "outcome after 10 days", "setting": "Depression; after 10 days", "value": "a notable recuperation takes place"}, {"measurement": "time to begin of recovery", "setting": "Depression; person, severe Depression", "value": 5, "unit": "days"}, {"measurement": "limbs inflammation at follow-up", "setting": "Lymphedema; after 11 months", "value": "no limbs inflammation has developed"}, {"measurement": "outcome after 10 days", "setting": "Lymphedema; after 10 days", "value": "a notable recuperation takes place"}, {"measurement": "time to begin of recovery", "setting": "Lymphedema; person, severe limbs inflammation after cancer radiotherapy", "value": 5, "unit": "days"}, {"measurement": "symptoms at follow-up", "setting": "Parkinson Disease; after 12 months, method No 4", "value": "no AD symptoms has developed"}, {"measurement": "time to recovery", "setting": "Parkinson Disease; patient, moderate conditions, method No 4: 6 l/min oxygen flow 60 min twice a day during 10 days", "value": 5, "unit": "days"}, {"measurement": "additional flow of oxygen", "setting": "[1]; 31% O2 inspired", "value": 0.15, "unit": "L/min"}, {"measurement": "increase of the oxygen transport to the tissues", "setting": "[1]; 31% O2 inspired", "value": 0.72, "unit": "%"}, {"measurement": "Oxygen content in the arterial blood", "setting": "[1]; 31% O2 inspired, 147 mm Hg", "value": 20.85, "unit": "ml/dL"}, {"measurement": "oxygen transported to the tissues", "setting": "[1]; 31% O2 inspired", "value": 20.85, "unit": "l Oxygen/min"}, {"measurement": "Oxygen at the brain level, Cortex (gray)", "setting": "[1]; 31% oxygen inspired", "value": "3.69-7.79 % O2"}, {"measurement": "Oxygen at the brain level, Cortex (white)", "setting": "[1]; 31% oxygen inspired", "value": "1.17-3.0 % O2"}, {"measurement": "Oxygen at the brain level, Hippocampus", "setting": "[1]; 31% oxygen inspired", "value": "3.8-5.7 % O2"}, {"measurement": "Oxygen at the brain level, Hypothalamus", "setting": "[1]; 31% oxygen inspired", "value": "2.0-3.0 % O2"}, {"measurement": "Oxygen at the brain level, Pons, fornix", "setting": "[1]; 31% oxygen inspired", "value": "0.14-0.58 % O2"}, {"measurement": "additional flow of oxygen", "setting": "[1]; 95% O2 inspired", "value": 1.4, "unit": "L/min"}, {"measurement": "increase of oxygen flow to the tissues", "setting": "[1]; 95% O2 inspired", "value": 6.76, "unit": "%"}, {"measurement": "Oxygen content in the arterial blood", "setting": "[1]; 95% O2 inspired, 452 mm Hg", "value": 21.80, "unit": "ml/dL"}, {"measurement": "oxygen transported to the tissues", "setting": "[1]; 95% O2 inspired", "value": 21.80, "unit": "l Oxygen/min"}, {"measurement": "Oxygen at the brain level, Cortex (gray)", "setting": "[1]; 95 % oxygen inspired", "value": "11.3-23.8 % O2"}, {"measurement": "Oxygen at the brain level, Cortex (white)", "setting": "[1]; 95 % oxygen inspired", "value": "3.58-9.18 % O2"}, {"measurement": "Oxygen at the brain level, Hippocampus", "setting": "[1]; 95 % oxygen inspired", "value": "11.6-17.4 % O2"}, {"measurement": "Oxygen at the brain level, Hypothalamus", "setting": "[1]; 95 % oxygen inspired", "value": "6.12-9.18 % O2"}, {"measurement": "Oxygen at the brain level, Pons, fornix", "setting": "[1]; 95 % oxygen inspired", "value": "0.42-1.77 % O2"}, {"measurement": "arterial pressure of oxygen", "setting": "[1]; oxygen enriched air of 31% O2 inspired", "value": 147, "unit": "mm Hg"}, {"measurement": "arterial pressure of oxygen", "setting": "[1]; oxygen of 95% O2 inspired", "value": 452, "unit": "mm Hg"}, {"measurement": "use of the therapy in patients", "setting": "[2]", "value": "satisfactory used"}]}
